Experiments:
Type in all cases: in vivo
[1] = system: ducksalad (Heteranthera limosa); assay: Test B flooded paddy test; details: for Plant response rating, Flood, Ducksalad: 250 g ai/ha, flooded paddy test, visual rating on 0 to 100 scale (0 no effect, 100 complete control) after 13 to 15 days; for Plant response rating, Ducksalad: Flood (flooded paddy test), 13 to 15 days; for Ducksalad plant response rating: Flood, 31 g ai/ha, scale 0 to 100 (0 no effect, 100 complete control)
Outline: (§1)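 Plants were grown to the 2-leaf stage, then pots were flooded to 3 cm above the soil and compounds were applied directly into the paddy water. That depth was held throughout. After 13 to 15 days in a greenhouse, injury was visually rated against controls on a 0–100 scale.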

[2] = system: rice (Oryza sativa); assay: Test B flooded paddy test; details: for Plant response rating, Flood, Rice: 250 g ai/ha, flooded paddy test, visual rating on 0 to 100 scale (0 no effect, 100 complete control) after 13 to 15 days; for Plant response rating, Rice: Flood (flooded paddy test), 13 to 15 days; for Rice plant response rating: Flood, 31 g ai/ha, scale 0 to 100 (0 no effect, 100 complete control)
Outline: as §1

[3] = system: barnyardgrass (Echinochloa crus-galli); assay: Test B flooded paddy test; details: for Plant response rating, Flood, Barnyardgrass: 250 g ai/ha, flooded paddy test, visual rating on 0 to 100 scale (0 no effect, 100 complete control) after 13 to 15 days; for Plant response rating, Barnyardgrass: Flood (flooded paddy test), 13 to 15 days; for Barnyardgrass plant response rating: Flood, 31 g ai/ha, scale 0 to 100 (0 no effect, 100 complete control)
Outline: as §1

[4] = system: umbrella sedge (Cyperus difformis); assay: Test B flooded paddy test; details: for Plant response rating, Flood, Sedge, Umbrella: 250 g ai/ha, flooded paddy test, visual rating on 0 to 100 scale (0 no effect, 100 complete control) after 13 to 15 days; for Plant response rating, Sedge, Umbrella: Flood (flooded paddy test), 13 to 15 days; for Sedge, Umbrella plant response rating: Flood, 31 g ai/ha, scale 0 to 100 (0 no effect, 100 complete control)
Outline: as §1

[5] = system: morningglory (Ipomoea coccinea); assay: Test B pre-/postemergence plant response; details: for Morningglory plant response rating (0 to 100 scale): 62 g ai/ha, 0 is no effect, 13 to 15 days
Outline: (§2)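 Pre-em in loam/sand; post-em at 1–4 leaf (2–18 cm) in peat mix. Solvent + surfactant formulation. Greenhouse 13–15 d; visual % control vs untreated, 0–100.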

[6] = system: Surinam grass (Brachiaria decumbens); assay: Test B pre-/postemergence plant response; details: for Surinam Grass plant response rating (0 to 100 scale): 62 g ai/ha, 0 is no effect, 13 to 15 days
Outline: as §2

[7] = system: Italian ryegrass (Lolium multiflorum); assay: Test B pre-/postemergence plant response; details: for Ryegrass, Italian plant response rating (0 to 100 scale): 62 g ai/ha, 0 is no effect, 13 to 15 days
Outline: as §2

[8] = system: ragweed (common ragweed, Ambrosia elatior); assay: Test B pre-/postemergence plant response; details: for Ragweed plant response rating (0 to 100 scale): 62 g ai/ha, 0 is no effect, 13 to 15 days
Outline: as §2

[9] = system: corn (Zea mays); assay: Test B pre-/postemergence plant response; details: for Corn plant response rating (0 to 100 scale): 62 g ai/ha, 0 is no effect, 13 to 15 days
Outline: as §2

[10] = system: bermudagrass (Cynodon dactylon); assay: Test B pre-/postemergence plant response; details: for Bermudagrass plant response rating (0 to 100 scale): 62 g ai/ha, 0 is no effect, 13 to 15 days
Outline: as §2

[11] = system: soybean (Glycine max); assay: Test B pre-/postemergence plant response; details: for Soybean plant response rating (0 to 100 scale): 62 g ai/ha, 0 is no effect, 13 to 15 days
Outline: as §2

[12] = system: cocklebur (Xanthium strumarium); assay: Test B pre-/postemergence plant response; details: for Cocklebur plant response rating (0 to 100 scale): 62 g ai/ha, 0 is no effect, 13 to 15 days
Outline: as §2

[13] = system: blackgrass (Alopecurus myosuroides); assay: Test B pre-/postemergence plant response; details: for Blackgrass plant response rating (0 to 100 scale): 62 g ai/ha, 0 is no effect, 13 to 15 days
Outline: as §2

[14] = 62 g ai/ha, scale of 0 to 100 where 0 is no effect and 100 is complete control
[15] = 125 g ai/ha, scale 0 to 100, 0 is no effect, 100 is complete control
[16] = 31 g ai/ha, postemergence, scale 0 to 100, 0 is no effect, 100 is complete control
[17] = postemergence, 100 is complete control
[18] = Postemergence, 125 g ai/ha, visual rating after 13 to 15 days, scale 0 (no effect) to 100 (complete control)
[19] = Postemergence, 250 g ai/ha, scale 0 to 100 (0 no effect, 100 complete control)

Cc1ccc(-c2ncc(C(=O)C3=C(O)CCCC3=O)c(=O)n2-c2ccccc2)cc1 [Compound 80]
Plant response rating, Flood, Ducksalad [1]: 30 | Plant response rating, Ducksalad [1, 14]: 20 | Plant response rating, Ducksalad [1, 15]: 30 | Ducksalad plant response rating [1]: 0 | Plant response rating, Flood, Rice [2]: 15 | Plant response rating, Rice [2, 14]: 0 | Plant response rating, Rice [2, 15]: 0 | Rice plant response rating [2]: 0 | Plant response rating, Flood, Barnyardgrass [3]: 30 | Plant response rating, Barnyardgrass [3, 14]: 20 | Plant response rating, Barnyardgrass [3, 15]: 25 | Barnyardgrass plant response rating [3]: 15 | Plant response rating, Flood, Sedge, Umbrella [4]: 40 | Plant response rating, Sedge, Umbrella [4, 14]: 20 | Plant response rating, Sedge, Umbrella [4, 15]: 30 | Sedge, Umbrella plant response rating [4]: 0 | Plant response rating, Morningglory [5, 16]: 85 | Morningglory plant response rating (0 to 100 scale) [5, 17]: 100 | Plant response rating, Morningglory [5, 18]: 100 | Plant response rating, Morningglory [5, 19]: 100 | Plant response rating, Surinam Grass [6, 16]: 45 | Surinam Grass plant response rating (0 to 100 scale) [6, 17]: 45 | Plant response rating, Surinam Grass [6, 18]: 60 | Plant response rating, Surinam Grass [6, 19]: 65 | Plant response rating, Ryegrass, Italian [7, 16]: 0 | Ryegrass, Italian plant response rating (0 to 100 scale) [7, 17]: 0 | Plant response rating, Ryegrass, Italian [7, 18]: 5 | Plant response rating, Ryegrass, Italian [7, 19]: 5 | Plant response rating, Ragweed [8, 16]: 50 | Ragweed plant response rating (0 to 100 scale) [8, 17]: 60 | Plant response rating, Ragweed [8, 18]: 65 | Plant response rating, Ragweed [8, 19]: 75 | Plant response rating, Corn [9, 16]: 5 | Corn plant response rating (0 to 100 scale) [9, 17]: 35 | Plant response rating, Corn [9, 18]: 65 | Plant response rating, Corn [9, 19]: 65 | Plant response rating, Bermudagrass [10, 16]: 20 | Bermudagrass plant response rating (0 to 100 scale) [10, 17]: 40 | Plant response rating, Bermudagrass [10, 18]: 45 | Plant response rating, Bermudagrass [10, 19]: 55 | Plant response rating, Soybean [11, 16]: 75 | Soybean plant response rating (0 to 100 scale) [11, 17]: 80 | Plant response rating, Soybean [11, 18]: 90 | Plant response rating, Soybean [11, 19]: 95 | Plant response rating, Cocklebur [12, 16]: 0 | Cocklebur plant response rating (0 to 100 scale) [12, 17]: 10 | Plant response rating, Cocklebur [12, 18]: 45 | Plant response rating, Cocklebur [12, 19]: 65 | Plant response rating, Blackgrass [13, 16]: 0 | Blackgrass plant response rating (0 to 100 scale) [13, 17]: 0 | Plant response rating, Blackgrass [13, 18]: 5 | Plant response rating, Blackgrass [13, 19]: 10

Cc1ccccc1-c1ncc(C(=O)C2=C(O)CCCC2=O)c(=O)n1-c1ccccc1 [Compound 82]
Plant response rating, Flood, Ducksalad [1]: 20 | Plant response rating, Ducksalad [1, 14]: 0 | Plant response rating, Ducksalad [1, 15]: 0 | Ducksalad plant response rating [1]: 0 | Plant response rating, Flood, Rice [2]: 20 | Plant response rating, Rice [2, 14]: 0 | Plant response rating, Rice [2, 15]: 15 | Rice plant response rating [2]: 0 | Plant response rating, Flood, Barnyardgrass [3]: 20 | Plant response rating, Barnyardgrass [3, 14]: 0 | Plant response rating, Barnyardgrass [3, 15]: 15 | Barnyardgrass plant response rating [3]: 0 | Plant response rating, Flood, Sedge, Umbrella [4]: 50 | Plant response rating, Sedge, Umbrella [4, 14]: 0 | Plant response rating, Sedge, Umbrella [4, 15]: 40 | Sedge, Umbrella plant response rating [4]: 0 | Plant response rating, Morningglory [5, 16]: 65 | Morningglory plant response rating (0 to 100 scale) [5, 17]: 100 | Plant response rating, Morningglory [5, 18]: 100 | Plant response rating, Morningglory [5, 19]: 100 | Plant response rating, Surinam Grass [6, 16]: 65 | Surinam Grass plant response rating (0 to 100 scale) [6, 17]: 65 | Plant response rating, Surinam Grass [6, 18]: 75 | Plant response rating, Surinam Grass [6, 19]: 80 | Plant response rating, Ryegrass, Italian [7, 16]: 0 | Ryegrass, Italian plant response rating (0 to 100 scale) [7, 17]: 0 | Plant response rating, Ryegrass, Italian [7, 18]: 5 | Plant response rating, Ryegrass, Italian [7, 19]: 10 | Plant response rating, Ragweed [8, 16]: 75 | Ragweed plant response rating (0 to 100 scale) [8, 17]: 80 | Plant response rating, Ragweed [8, 18]: 95 | Plant response rating, Ragweed [8, 19]: 95 | Plant response rating, Corn [9, 16]: 0 | Corn plant response rating (0 to 100 scale) [9, 17]: 5 | Plant response rating, Corn [9, 18]: 5 | Plant response rating, Corn [9, 19]: 15 | Plant response rating, Bermudagrass [10, 16]: 80 | Bermudagrass plant response rating (0 to 100 scale) [10, 17]: 85 | Plant response rating, Bermudagrass [10, 18]: 85 | Plant response rating, Bermudagrass [10, 19]: 95 | Plant response rating, Soybean [11, 16]: 75 | Soybean plant response rating (0 to 100 scale) [11, 17]: 90 | Plant response rating, Soybean [11, 18]: 95 | Plant response rating, Soybean [11, 19]: 98 | Plant response rating, Cocklebur [12, 16]: 85 | Cocklebur plant response rating (0 to 100 scale) [12, 17]: 90 | Plant response rating, Cocklebur [12, 18]: 95 | Plant response rating, Cocklebur [12, 19]: 100 | Plant response rating, Blackgrass [13, 16]: 0 | Blackgrass plant response rating (0 to 100 scale) [13, 17]: 0 | Plant response rating, Blackgrass [13, 18]: 5 | Plant response rating, Blackgrass [13, 19]: 15

Source: US8952024B2, “Herbicidal pyrimidone derivatives” (E I du Pont de Nemours and Company, priority 2009, dated 2015)
